Experimental data reported in patent publication US20020115642A1, “Beta-lactam antibiotics” (priority 2000, published 2002).
In brackets after ≈: the same amount, converted by molar mass. Where two headings read alike, the source gives them in different places.

Tests used:
P. aeruginosa = assay: Susceptibility testing (MIC, modified NCCLS method); assay type: cell-based, Pseudomonas aeruginosa; details: Pseudomonas aeruginosa, read-out: MIC
Method: The NCCLS (National Committee for Clinical Laboratory Standards) method to determine MIC's of antimicrobial compounds was modified for high-throughput screening. All stocks of tested compounds were prepared in either water or in dimethylsulfoxide (DMSO), depending on the solubility. […] Briefly 20 2-fold serial dilutions of testing compounds from the highest concentration were made in a 384-well microtiter plate. Each well was inoculated with testing bacteria in broth to a final concentration of approximately 1-1.5×10^6 cells/ml. Bacterial growth was determined by the increase of optical density at 600 nm using a microplate reader (Tecan SpectraFluor Plus).

Staphylococcus aureus = assay: as above; assay type: cell-based; details: Staphylococcus aureus, read-out: MIC
Outline: (§1)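 Growth inhibition was scored by optical density increase at 600 nm. Bacteria in broth were added at roughly 1-1.5×10^6 cells/ml to 20 twofold serial dilutions of compound, prepared from water or DMSO stocks. The NCCLS MIC procedure was modified for high throughput.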

E. faecalis = assay: as above; assay type: cell-based, Enterococcus faecalis; details: Enterococcus faecalis, read-out: MIC
Outline: as §1

E. coli/TEM-1 = assay: as above; assay type: cell-based, Escherichia coli; details: Escherichia coli
Outline: as §1

E. coli N = assay: as above; assay type: cell-based, Escherichia coli; details: Escherichia coli; E. coli (N); read-out: MIC
Outline: as §1

E. cloacae = assay: as above; assay type: cell-based, Enterobacter cloacae; details: Enterobacter cloacae, ATCC23355; E. cloacae ATCC 23355; read-out: MIC
Outline: as §1

E. aerogenes = assay: as above; assay type: cell-based, Enterobacter aerogenes; details: Klebsiella aerogenes, ATCC35028; E. aerogenes ATCC 35028; read-out: MIC
Outline: as §1

K. pneumoniae = assay: as above; assay type: cell-based, Klebsiella pneumoniae; details: Klebsiella pneumoniae, read-out: MIC
Outline: as §1

[1] = system: TEM-52, an antibiotic-resitant E. coli; details: TEM-52 versus wild-type; Fletcher (2001); cited from earlier work

Row | SMILES | MIC (P. aeruginosa; ATCC21726, P. aeruginosa ATCC 21726) [µg/mL] | MIC (P. aeruginosa; ATCC29872, P. aeruginosa ATCC 29872) [µg/mL] | MIC (Staphylococcus aureus; ATCC11632, S. aureus ATCC 11632) [µg/mL] | MIC (Staphylococcus aureus; ATCC33594, S. aureus ATCC 33594) [µg/mL] | MIC (Staphylococcus aureus; ATCC700260, S. aureus ATCC 700260) [µg/mL] | MIC (Staphylococcus aureus; ATCC700699, S. aureus ATCC 700699) [µg/mL] | MIC (E. faecalis; ATCC49757, E. faecalis ATCC 49757) [µg/mL] | MIC (E. faecalis; ATCC700802, E. faecalis ATCC 700802) [µg/mL] | MIC (E. coli/TEM-1) [µg/mL] | MIC (E. coli N) [µg/mL] | MIC (E. cloacae) [µg/mL] | MIC (E. aerogenes) [µg/mL] | MIC (K. pneumoniae; ATCC51503, K. pneumoniae ATCC 51503) [µg/mL] | MIC (K. pneumoniae; ATCC700721, K. pneumoniae ATCC 700721) [µg/mL] | melting point [°C] | fold more resistant than wild-type E coli [1]
1 | O=C(Cn1cnnn1)NC1C(=O)N2C(C(=O)O)=C(COc3cc(Cl)ccc3Oc3ccc(Cl)cc3Cl)CS[C@H]12 (stereo partly shown) [Compound 29, 3-(2-(2,4-Dichlorophenoxy)-5-chlorophenoxy)methyl-7-(1-tetrazoleacetamido)-3-cephem-4-carboxylic acid] | > 32 | > 32 | 0.063 (≈ 0.103 µM) | 0.063 (≈ 0.103 µM) | 0.063 (≈ 0.103 µM) | 0.125 (≈ 0.204 µM) | 8 (≈ 13.1 µM) | 16 (≈ 26.2 µM) | 0.063 (≈ 0.103 µM) | 2 (≈ 3.27 µM) | 1 (≈ 1.63 µM) | 32 (≈ 52.3 µM) | 8 (≈ 13.1 µM) | 1 (≈ 1.63 µM) | 112 | –
2 | CO/N=C(\C(=O)N[C@@H]1C(=O)N2C(C(=O)O)=C(COC(C)=O)CS[C@H]12)c1csc(N)n1 [cefotaxime] | – | – | – | – | – | – | – | – | – | – | – | – | – | – | – | more than 500 fold
